A short description of series [1]: Phase 1/1b study: steady-state blood PK. It is filed as in vivo, human. As to conditions: PO QD. From the text:
FIG. 3 graphically depicts the mean steady-state blood PK profiles and individual steady-state blood AUC.
(§1) Whole-blood samples are collected from all subjects to measure Compound A concentrations, circulating tumor deoxyribonucleic acid (ctDNA) and other biomarkers. Samples for pharmacodynamic assays collected in Cycle 1 and beyond. Paired pretreatment and on treatment fresh tumor samples can optionally be collected from any subject if consent is obtained and at the discretion of the treating physician. Optional collection of pre-study treatment fresh biopsy should be performed prior to C1D1 dosing. An optional on-study treatment biopsy can be obtained with subject consent and at the discretion of the treating physician. The primary purpose of the optional on-study treatment biopsies is to assess pharmacodynamic markers and previously acquired pre-study treatment markers of resistance. Biopsy assessment with study intervention treatment over time may also help with better understanding of the shift in mutational profile with study treatment, as well as cellular clonality changes over time. Where tumor tissue allows, predictive biomarkers of response may be explored.
Compound A was administered PO QD at the following dose levels until disease progression or unacceptable toxicity: 10, 20, 40, 80, 120, 160, 220, 300, 400, and 500 mg. Progression to the next Cohort and dose level may stop if DLT is observed at a lower dose level. Other dose levels not specified but within the range listed above may also be permitted based on emergent safety and PK data.
(§2) Dose levels greater than or equal to 80 mg achieved exposures that induced tumor regressions in human xenograft models with KRAS^G12X mutations in mice (FIG. 3).

In series [2] the test system is KRAS^G12X NSCLC. The series can be described thus: Phase 1/1b study: tumor response per RECIST v1.1 in NSCLC. The class given is in vivo, human. The protocol: FIG. 4 is a waterfall plot showing the best response in KRAS^G12X NSCLC.
Subjects are assessed for response using Response Evaluation Criteria in Solid Tumors (version 1.1) (RECIST [v1.1]). All subjects with previous or current, known or suspected brain metastases must have a magnetic resonance imaging (MRI) of the brain (unless contraindicated) performed within 28 days prior to the first dose of Compound A (C1D1). Disease response for clinical management of subjects is assessed per RECIST (v1.1).

Series [3] has as its system KRAS^G12X VAF in ctDNA. The series can be described thus: KRAS variant allele frequency in ctDNA (Guardant Health ctDNA test). It is filed as in vivo, human.
From the text: Lines inside box plots indicate median values; whiskers indicate largest or smallest value (at most±1.5× the interquartile range). Circles indicate data points >1.5 times the interquartile range; KRAS^G12X VAF at Cycle 1 Day 1 (pre-treatment) to Cycle 2 Day 1 or Cycle 3 Day 1 (on-treatment) determined by Guardant Health ctDNA test. ctDNA, circulating tumor DNA; VAF, variant allele frequency.
as §1, with “Biopsy assessment with study intervention treatment over time may also help with better understanding of the shift in mutational profile with study treatment, as well as cellular clonality changes over time. Where tumor tissue allows, predictive biomarkers of response may be explored.” left out
Patients with NSCLC and PDAC evaluated for molecular responses were dosed at 20-300 mg QD. […]

Series [4] deals with human xenograft models with KRAS^G12X mutations. The series can be described thus: Human xenograft tumor models in mice. The class given is in vivo. Conditions: for Tumor regressions in xenograft models: mice.
From the text: As described herein, Compound A is a potent, orally (PO) bioavailable RAS(ON) multi-selective inhibitor, selective for the active guanosine-5′-triphosphate (GTP)-bound state (RAS(ON)) of both mutant and wild-type variants of the canonical RAS isoforms (KRAS, NRAS, and HRAS) over other members of the RAS superfamily and other cellular targets. […] Binding of Compound A to CypA results in an inhibitory complex that binds RAS(ON), forming a high-affinity tri-complex that suppresses RAS signaling by disrupting interactions with effectors.
as §2

In series [5] the test system is human KRAS^G12C NSCLC NCI-H2122 xenograft tumors. The series can be described thus: NCI-H2122 xenograft, Compound A plus RMC-6291 combination. It is filed as in vivo. As to conditions: immune-deficient mice; repeated daily oral administration. On the procedure: The antitumor activity of Compound A in combination with RMC-6291 was evaluated using immune-deficient mice bearing human KRAS^G12C NSCLC NCI-H2122 xenograft tumors.

The mark [6] stands for this setting: KRAS G12X NSCLC, 80 mg QD to 400 mg QD, RECIST v1.1, FIG. 4.

Consider `CCn1c(-c2cc(N3CCN(C)CC3)cnc2[C@H](C)OC)c2c3cc(ccc31)-c1csc(n1)C[C@H](NC(=O)[C@H]1C[C@@H]1C)C(=O)N1CCC[C@H](N1)C(=O)OCC(C)(C)C2` [Compound A], for which the “Exposure in patients versus dose” value in series [1] (blood) is recorded as “dose-dependent increases in exposure”. The “Accumulation in the blood following repeated daily dosing” value in series [1] (patients) is reported as “minimal accumulation”. The “Dose levels that achieved exposures that induced tumor regressions in human xenograft models with KRAS^G12X mutations in mice” value in series [1] (patients, FIG. 3) is given as “greater than or equal to 80 mg”. In series [2] (setting [6]), the Disease control rate is on record as 85% and the Overall response rate came out at 38%. Besides, in series [2] (one patient, 80 mg QD, at cycle 5), the “Response, case report KRAS^G12D NSCLC” value is on record as “confirmed partial response”. The “Response, case report KRAS^G12V NSCLC” value in series [2] (one patient, 300 mg QD reduced to 200 mg QD due to fatigue, at week 6) was “confirmed complete response”. Further, the “Clinical symptoms, case report KRAS^G12V NSCLC” value in series [2] (one patient, 300 mg QD, within one week of start of treatment) is “clinical improvement in cough and dyspnea”. In addition, the “Reduction in KRAS^G12V VAF” value in series [3] (one patient with KRAS^G12V ovarian cancer, 10 mg QD, at C2D1) is 60%. The “Molecular response in ctDNA” value in series [3] (patients with NSCLC and PDAC dosed at 20-300 mg QD, FIG. 6) was “reduction in ctDNA of the KRAS-mutated allele”. In series [4] (10 mg/kg QD), the “Tumor regressions in xenograft models” value was “induces tumor regressions in sensitive models”. Further, in series [4] (25 mg/kg QD), the “Tumor regressions in xenograft models” value is given as “induces tumor regressions in the majority of models”. The “Anti-tumor activity in vivo” value in series [4] (human xenograft tumor models, particularly KRAS^G12X) was “significant anti-tumor activity”. In series [5], the Mean tumor regression entry is given as “mean tumor regressions were not achieved”.

For the origin of these results see patent US20250345328A1, “METHODS OF TREATING A RAS RELATED DISEASE OR DISORDER” (Revolution Medicines, Inc., priority 2023, published 2025).
